{"source": "ChEMBL document CHEMBL1201862", "about": "“PubChem BioAssay data set” (2004)", "key": {"[1]": {"target": "Vasopressin V1a receptor (Homo sapiens, UniProt P37288)", "sequence (P37288 whole entry)": "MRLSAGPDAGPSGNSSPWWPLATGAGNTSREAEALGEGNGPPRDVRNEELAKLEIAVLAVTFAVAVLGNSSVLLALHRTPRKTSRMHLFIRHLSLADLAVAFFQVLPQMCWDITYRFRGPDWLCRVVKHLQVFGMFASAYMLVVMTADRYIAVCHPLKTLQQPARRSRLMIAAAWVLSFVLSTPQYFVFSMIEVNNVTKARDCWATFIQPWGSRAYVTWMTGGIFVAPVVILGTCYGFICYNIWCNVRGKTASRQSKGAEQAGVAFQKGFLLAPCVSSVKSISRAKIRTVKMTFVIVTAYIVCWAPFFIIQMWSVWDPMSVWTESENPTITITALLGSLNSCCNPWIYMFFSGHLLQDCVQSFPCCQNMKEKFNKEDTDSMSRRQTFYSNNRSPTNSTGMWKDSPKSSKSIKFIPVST", "assay": "Counterscreen for Oxytocin Receptor (OXTR) agonists: Fluorescence-based cell-based high throughput dose response assay to identify agonists of the vasopressin 1 receptor (V1R). [Related pubchem assays: 2435 (Primary screen (OXTR agonists in singlicate)), 434991 (Counterscreen (V1R agonists in triplicate)), 2482 (Summary (OXTR agonists)) …", "assay_type": "functional"}, "[2]": {"target": "Oxytocin receptor (Homo sapiens, UniProt P30559)", "sequence (P30559 whole entry)": "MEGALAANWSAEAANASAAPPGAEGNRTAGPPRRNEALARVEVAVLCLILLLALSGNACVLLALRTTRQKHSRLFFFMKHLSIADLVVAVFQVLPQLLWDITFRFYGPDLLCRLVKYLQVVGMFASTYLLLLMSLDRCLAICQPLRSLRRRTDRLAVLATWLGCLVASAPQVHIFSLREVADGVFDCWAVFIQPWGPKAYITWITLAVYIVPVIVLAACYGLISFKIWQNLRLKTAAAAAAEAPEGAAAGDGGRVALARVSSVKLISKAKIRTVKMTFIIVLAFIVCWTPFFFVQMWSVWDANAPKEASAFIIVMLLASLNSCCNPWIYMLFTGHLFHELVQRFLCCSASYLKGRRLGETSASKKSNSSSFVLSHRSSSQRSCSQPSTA", "assay": "Fluorescence-based cell-based high throughput dose response assay for agonists of the Oxytocin Receptor (OXTR). [Related pubchem assays: 2435 (Primary screen (OXTR agonists in singlicate)), 434991 (Counterscreen (V1R agonists in triplicate)), 2482 (Summary (OXTR agonists)), 434963 (Confirmation screen (OXTR agonists in triplicate))]", "assay_type": "functional"}, "[3]": {"target": "Kallikrein-7 (Homo sapiens, UniProt P49862)", "sequence (P49862 whole entry)": "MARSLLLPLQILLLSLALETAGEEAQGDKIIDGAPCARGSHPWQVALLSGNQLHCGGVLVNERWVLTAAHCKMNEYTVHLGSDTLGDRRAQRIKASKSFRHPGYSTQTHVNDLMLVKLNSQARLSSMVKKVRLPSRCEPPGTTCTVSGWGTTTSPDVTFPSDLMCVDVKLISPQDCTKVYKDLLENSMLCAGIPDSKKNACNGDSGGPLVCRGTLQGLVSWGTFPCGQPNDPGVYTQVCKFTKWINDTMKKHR", "assay": "Fluorescence Intensity-based biochemical primary high throughput dose response assay to identify activators of kallikrein-7 (K7) zymogen."}, "[4]": {"tested_on": "Vero", "assay": "cytotoxicity of synthesized analogs in Vero cells, SAR follow-up, cytotoxicity control for West Nile virus antiviral project, cell-based, set II (AID 2402)", "assay_type": "functional", "conditions": "Chlorocebus sabaeus"}, "[5]": {"assay": "A Cell Based Assay for the Identification of Probe candidate Compounds with Anti- Venezuelan Equine Encephalitis virus. [Related pubchem assays: 2409, 2419, 1621, 2238, 2405, 2024, 2065, 2402, 2414, 1635, 1650, 2244 ]", "assay_type": "functional"}, "[6]": {"target": "T1, Estrogen receptor (Homo sapiens, UniProt P03372)", "T1 sequence (P03372 whole entry)": "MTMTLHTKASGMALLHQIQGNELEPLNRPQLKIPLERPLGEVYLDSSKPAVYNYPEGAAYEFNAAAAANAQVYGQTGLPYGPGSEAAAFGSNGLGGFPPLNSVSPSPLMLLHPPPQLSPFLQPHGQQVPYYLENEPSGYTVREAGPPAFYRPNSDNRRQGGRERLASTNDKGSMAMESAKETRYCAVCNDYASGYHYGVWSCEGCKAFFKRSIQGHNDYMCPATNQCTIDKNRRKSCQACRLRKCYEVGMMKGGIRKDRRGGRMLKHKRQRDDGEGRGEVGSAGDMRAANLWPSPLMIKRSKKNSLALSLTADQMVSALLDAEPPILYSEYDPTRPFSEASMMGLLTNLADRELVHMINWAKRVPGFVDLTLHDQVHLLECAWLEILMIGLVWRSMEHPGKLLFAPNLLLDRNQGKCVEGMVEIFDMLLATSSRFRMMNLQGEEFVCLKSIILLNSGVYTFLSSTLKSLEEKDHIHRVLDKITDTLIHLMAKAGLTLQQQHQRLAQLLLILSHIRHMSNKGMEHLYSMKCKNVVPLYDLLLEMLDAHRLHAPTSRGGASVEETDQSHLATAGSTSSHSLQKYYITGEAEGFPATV", "assay": "ERα–SRC-3 coactivator interaction inhibitors, confirmation, orthogonal assay, biochemical, ELISA, streptavidin-HRP readout (AID 1079)"}, "[7]": {"target": "Exodeoxyribonuclease V (Escherichia coli (strain K12), UniProt P04993+P07648+P08394)", "assay": "E. coli RecBCD inhibitors, dose response, counter-screen for AddAB inhibitor project, absorbance, V66 E. coli, mutant T4 phage (AID 492957)", "assay_type": "functional, cell-based, Escherichia coli str. K-12 substr. MG1655"}, "[8]": {"assay": "Luminescence Cell-Based Dose Retest to Confirm Inhibitors of Cancer Stem Cells. [Related pubchem assays (depositor defined):AID2717, AID2721]", "assay_type": "functional", "conditions": "Homo sapiens"}, "[9]": {"assay": "ZM109 Env clade C HIV-1 fusion inhibitors, dose response, HeLa effector, CEM target cells, luciferase, cherry-pick (AID 652058)", "assay_type": "functional, cell-based"}, "[10]": {"assay": "Luminescence-based counterscreen assay for KLF5 inhibitors: dose response cell-based high throughput screening assay to identify cytotoxic compounds using the IEC-6 intestinal epithelial cell line. [Related pubchem assays: 1700 (Primary screen.), 1834 (Confirmation screen.), 1858 (Summary AID.), 1905 (Counterscreen.)]", "assay_type": "functional"}, "[11]": {"tested_on": "INS1", "assay": "beta cell apoptosis inhibitors, cytokine rescue, dose response, luminescence, retest (AID 449756);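 further: cell death triggered by IL-1 beta plus TNF-alpha plus IFN-gamma mixture; protective hits raise ATP signal compared with cytokine alone wells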", "assay_type": "functional, cell-based", "conditions": "Rattus norvegicus"}, "[12]": {"target": "Heat shock protein HSP 90-alpha (Homo sapiens, UniProt P07900)", "assay_type": "functional, organism-based"}, "[13]": {"assay": "inhibitors of clade B AD8 Env fusion, dose response, cell-based, cherry-pick (AID 652062);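 further: potency is for inhibitors of fusion seen as a drop in luminescence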", "assay_type": "functional"}, "[14]": {"assay": "CEM21 lymphoblast cell cytotoxicity, dose response, cytotoxicity control for viral fusion inhibitor project, CellTiter-Glo luminescence, cherry-picked (AID 652042);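 further: potency for signal decrease meaning cytotoxicity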", "assay_type": "functional, cell-based"}, "[15]": {"assay": "off-target signal loss in HeLa-CEM21 co-culture – HeLa F-luc CTL cells, cherry-picked, counter-screen for HIV-1 Env fusion inhibitor project, dose response (AID 652040);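 further: potency for signal decrease marking cytotoxic or nonspecific inhibition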", "assay_type": "functional, cell-based"}, "[16]": {"assay": "inhibitors of HIV Env-driven cell fusion, dose response, cherry-pick (AID 652057)", "assay_type": "functional, cell-based"}, "[17]": {"assay": "Counterscreen for AddAB inhibitors: absorbance-based bacterial cell-based high throughput dose response assay for inhibitors of bacterial viability. [Related pubchem assays (depositor defined):AID435030, AID449728, AID449731, AID488942, AID488955, AID488956]", "assay_type": "functional"}, "[18]": {"target": "T2, Dual specificity protein phosphatase 6 (Rattus norvegicus, UniProt Q64346)", "T2 sequence (Q64346 whole entry)": "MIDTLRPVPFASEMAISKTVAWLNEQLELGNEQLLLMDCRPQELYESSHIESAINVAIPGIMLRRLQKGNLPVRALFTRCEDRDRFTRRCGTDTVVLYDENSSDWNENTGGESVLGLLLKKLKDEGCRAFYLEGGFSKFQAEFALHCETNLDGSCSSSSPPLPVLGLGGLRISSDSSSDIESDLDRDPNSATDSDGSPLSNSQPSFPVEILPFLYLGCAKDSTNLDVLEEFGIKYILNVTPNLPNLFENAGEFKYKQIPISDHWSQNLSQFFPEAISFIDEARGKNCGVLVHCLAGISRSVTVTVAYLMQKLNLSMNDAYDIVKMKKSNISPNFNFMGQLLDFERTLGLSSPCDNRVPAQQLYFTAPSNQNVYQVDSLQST", "assay_type": "functional"}, "[19]": {"target": "Heat shock 70 kDa protein 1A (Homo sapiens, UniProt P0DMV8)", "sequence (P0DMV8 whole entry)": "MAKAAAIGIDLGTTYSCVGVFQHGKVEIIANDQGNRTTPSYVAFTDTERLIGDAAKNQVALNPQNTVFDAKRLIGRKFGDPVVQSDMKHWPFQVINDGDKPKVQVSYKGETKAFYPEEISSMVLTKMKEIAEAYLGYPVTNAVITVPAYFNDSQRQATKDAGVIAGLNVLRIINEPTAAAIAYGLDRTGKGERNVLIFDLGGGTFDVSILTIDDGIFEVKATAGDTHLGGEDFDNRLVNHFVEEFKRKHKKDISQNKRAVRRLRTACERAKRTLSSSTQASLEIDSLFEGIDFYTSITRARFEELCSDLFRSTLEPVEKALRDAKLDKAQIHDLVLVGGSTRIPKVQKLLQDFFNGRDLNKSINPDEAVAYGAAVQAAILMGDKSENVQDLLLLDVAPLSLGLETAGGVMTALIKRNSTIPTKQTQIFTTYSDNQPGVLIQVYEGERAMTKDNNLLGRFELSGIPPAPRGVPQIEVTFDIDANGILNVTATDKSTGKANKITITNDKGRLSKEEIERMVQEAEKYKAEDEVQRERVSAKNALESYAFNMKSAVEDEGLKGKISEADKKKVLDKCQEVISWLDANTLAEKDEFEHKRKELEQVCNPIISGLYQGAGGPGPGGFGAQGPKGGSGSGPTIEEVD", "assay": "Hsp70 inhibitors, SAR follow-up, biochemical, fluorescence polarization (AID 1072)"}, "[20]": {"target": "Glyceraldehyde-3-phosphate dehydrogenase (Homo sapiens, UniProt P04406)", "sequence (P04406 whole entry)": "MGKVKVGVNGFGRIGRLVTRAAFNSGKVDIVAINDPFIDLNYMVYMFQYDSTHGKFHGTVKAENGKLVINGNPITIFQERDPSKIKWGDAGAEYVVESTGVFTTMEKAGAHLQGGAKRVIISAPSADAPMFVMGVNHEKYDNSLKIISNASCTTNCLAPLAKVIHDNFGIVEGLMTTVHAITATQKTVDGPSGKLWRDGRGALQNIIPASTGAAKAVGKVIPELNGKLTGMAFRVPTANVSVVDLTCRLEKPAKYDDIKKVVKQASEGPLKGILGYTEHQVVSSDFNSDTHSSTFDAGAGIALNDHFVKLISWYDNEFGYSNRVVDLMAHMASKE"}, "[21]": {"target": "Heat shock cognate 71 kDa protein (Homo sapiens, UniProt P11142)", "sequence (P11142 whole entry)": "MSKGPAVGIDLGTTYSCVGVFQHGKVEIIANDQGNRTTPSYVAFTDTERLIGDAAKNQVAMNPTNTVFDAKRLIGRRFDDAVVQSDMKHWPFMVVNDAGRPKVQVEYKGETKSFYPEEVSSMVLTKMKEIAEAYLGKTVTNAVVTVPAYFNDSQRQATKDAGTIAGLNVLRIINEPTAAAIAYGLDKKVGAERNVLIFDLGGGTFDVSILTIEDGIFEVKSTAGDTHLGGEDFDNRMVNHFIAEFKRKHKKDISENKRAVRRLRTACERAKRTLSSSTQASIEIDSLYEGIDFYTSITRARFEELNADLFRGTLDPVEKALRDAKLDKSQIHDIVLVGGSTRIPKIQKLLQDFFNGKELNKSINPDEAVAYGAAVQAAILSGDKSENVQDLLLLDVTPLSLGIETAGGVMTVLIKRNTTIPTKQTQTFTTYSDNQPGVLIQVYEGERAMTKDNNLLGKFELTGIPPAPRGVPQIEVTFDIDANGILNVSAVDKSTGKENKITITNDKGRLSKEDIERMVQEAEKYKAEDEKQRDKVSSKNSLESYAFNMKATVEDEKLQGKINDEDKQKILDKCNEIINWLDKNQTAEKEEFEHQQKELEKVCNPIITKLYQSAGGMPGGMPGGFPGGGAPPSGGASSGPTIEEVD", "assay": "In Vitro Hsc70 Dose Response Fluorescence Polarization Assay. [Related pubchem assays: 1072 ]"}, "[22]": {"target": "T3, Tyrosine-protein phosphatase non-receptor type 7 (Homo sapiens, UniProt P35236)", "T3 sequence (P35236 whole entry)": "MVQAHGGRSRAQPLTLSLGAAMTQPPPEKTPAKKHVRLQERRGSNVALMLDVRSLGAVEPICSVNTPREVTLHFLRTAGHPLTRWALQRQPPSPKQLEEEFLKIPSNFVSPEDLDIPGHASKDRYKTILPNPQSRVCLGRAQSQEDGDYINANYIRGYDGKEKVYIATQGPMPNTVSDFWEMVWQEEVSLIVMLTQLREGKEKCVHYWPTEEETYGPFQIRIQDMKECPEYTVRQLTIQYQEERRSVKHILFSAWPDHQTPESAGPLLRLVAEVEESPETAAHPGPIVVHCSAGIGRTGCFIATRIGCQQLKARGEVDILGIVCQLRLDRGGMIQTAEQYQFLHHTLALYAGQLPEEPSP", "assay_type": "functional"}, "[23]": {"target": "T2, Dual specificity protein phosphatase 6"}}, "note": "Activity calls are given as the source filed them.", "data": [{"smiles": "Cc1cc(-c2nnc(SCC(=O)Nc3ccccc3C(F)(F)F)o2)c(C)n1-c1ccccc1", "values": [{"measurement": "EC50", "setting": "[1]", "result": "> 29.9 µM (not active)"}, {"measurement": "EC50", "setting": "[2]", "result": "> 29.9 µM (not active)"}]}, {"smiles": "OC1c2cc(Cl)cc(Cl)c2N=C2CCCN21", "note": "(stereo not drawn)", "values": [{"measurement": "EC50", "setting": "[3]", "result": "48.5 µM (inactive)"}, {"measurement": "CC50", "setting": "[4]", "result": "> 200 µM (active)"}, {"measurement": "IC50", "setting": "[5]", "result": "< 0.26 µM (active)"}]}, {"smiles": "O=C(CCCCCn1c(=S)[nH]c2ccccc2c1=O)N1CCC(N(Cc2ccccc2)c2ccccc2)CC1", "values": [{"measurement": "IC50", "setting": "[6]", "result": "0.12 µM (not active)"}]}, {"smiles": "COc1cccc(/C=N/Nc2ncc(C(F)(F)F)cc2Cl)c1O", "values": [{"measurement": "IC50", "setting": "[7]", "result": "> 119 µM (inactive)"}, {"measurement": "AC50", "setting": "[8]", "result": "0.469 µM (active)"}, {"measurement": "AC50", "setting": "[9]", "result": "1.45 µM (active)"}, {"measurement": "IC50", "setting": "[10]", "result": "26.8 µM (not active)"}, {"measurement": "AC50", "setting": "[11]", "result": "0.584 µM (active)"}, {"measurement": "AC50", "setting": "[12]", "result": "5.59 µM (active)"}, {"measurement": "AC50", "setting": "[13]", "result": "7.04 µM (active)"}, {"measurement": "AC50", "setting": "[14]", "result": "2.15 µM (active)"}, {"measurement": "AC50", "setting": "[15]", "result": "17.4 µM (active)"}, {"measurement": "AC50", "setting": "[16]", "result": "1.37 µM (active)"}, {"measurement": "IC50", "setting": "[17]", "result": "98.2 µM (inactive)"}]}, {"smiles": "NC(=O)c1cccc2c1NC(C(=O)O)C1CC=CC21", "note": "(stereo not drawn)", "values": [{"measurement": "IC50", "setting": "[18]", "result": "55.5 µM (active)"}, {"measurement": "IC50", "setting": "[19]", "result": "10.4 µM (active)"}, {"measurement": "IC50", "setting": "[20]", "result": "> 100 µM (not active)"}, {"measurement": "IC50", "setting": "[21]", "result": "86 µM (active)"}, {"measurement": "IC50", "setting": "[22]", "result": "3 µM (active)"}, {"measurement": "IC50", "setting": "[23]", "result": "58.6 µM (active)"}]}]}
